Experimental data taken from PMC8744835, “Sterically Hindered Quaternary Phosphonium Salts (QPSs): Antimicrobial Activity and Hemolytic and Cytotoxic Properties” (International Journal of Molecular Sciences, 2021).
Converted amounts (≈) assume the structure as drawn.

What was measured:
[1] = tested on: methicillin-resistant S. aureus MRSA-1; assay: Antimicrobial activity, serial dilution technique in Mueller–Hinton Broth 2; assay type: cell-based, Staphylococcus aureus; conditions: - means non-active
Description: (§1) The synthesized compounds were tested for antimicrobial activity against a number of Gram-positive bacteria, Staphylococcus aureus (Sa), Bacillus cereus (Bc) and Enterococcus faecalis (Ef), and Gram-negative bacteria, Escherichia coli (Ec) and Pseudomonas aeruginosa (Pa), including the methicillin-resistant strains S. aureus MRSA-1 (resistant to fluoroquinolones and beta-lactams) and MRSA-2 (resistant to beta-lactams). The methicillin-resistant strains S. aureus were transferred by the Republican Clinical Hospital of the Republic of Tatarstan (Kazan). The fungicidal activity against Candida albicans (Ca) and Trichophyton mentagrophytes var. gypseum (Tm) was studied. These pathogens were chosen because they are the most widespread in the food industry and the healthcare system.
(§2) The antimicrobial activity of the QPSs was determined using the serial dilution technique in Mueller–Hinton Broth 2. The cultures used for testing included the Gram-positive bacteria Staphylococcus aureus ATCC 6538P FDA 209P, Enterococcus faecalis ATCC 2921 and Bacillus cereus ATCC 10702 NCTC 8035, the Gram-negative bacteria Escherichia coli ATCC 25922 and Pseudomonas aeruginosa ATCC 9027, and the fungi Trichophyton mentagrophytes var. gypseum 1773 and Candida albicans ATCC 10231; methicillin-resistant strains of S. aureus MRSA were obtained from hospital patients with chronic tonsillitis (MRSA-1) and sinusitis (MRSA-2) in the Republican Clinical Hospital (Kazan, Russia). […] The bacterial load was 3.0 × 10^5 cfu/mL. The results were recorded every 24 h for 5 days. The cultures were incubated at 37 °C. The experiment was repeated three times. […] The minimum inhibitory concentration (MIC) was defined as the minimum concentration of a compound that inhibits the growth of the corresponding test micro-organism. The growth of bacteria as well as the absence of growth due to the bacteriostatic action of a compound was recorded.

[2] = tested on: methicillin-resistant S. aureus MRSA-2; assay: as above; assay type: cell-based, Staphylococcus aureus; conditions: - means non-active; for MIC: Staphylococcus aureus, MRSA, read-out: Minimum Inhibitory Concentration (MIC), MRSA-2
Description: as §1, §2

[3] = tested on: Enterococcus faecalis ATCC 2921; assay: as above; assay type: cell-based; conditions: average of three ± SD, - means non-active; for MIC: read-out: Minimum Inhibitory Concentration (MIC), Ef
Description: as §1, §2

[4] = tested on: Bacillus cereus ATCC 10702 NCTC 8035; assay: as above; assay type: cell-based; conditions: average of three ± SD, - means non-active; for MIC: read-out: Minimum Inhibitory Concentration (MIC), Bc
Description: as §1, §2

[5] = tested on: Pseudomonas aeruginosa ATCC 9027; assay: as above; assay type: cell-based; conditions: Pseudomonas aeruginosa, ATCC9027, Pa; average of three ± SD; - means non-active; read-out: Minimum Inhibitory Concentration (MIC), Pa
Description: as §1, §2

[6] = tested on: Staphylococcus aureus ATCC 6538P FDA 209P; assay: as above; assay type: cell-based; conditions: average of three ± SD, - means non-active; for MIC: Staphylococcus aureus, Sa, read-out: Minimum Inhibitory Concentration (MIC), Sa
Description: as §1, §2

[7] = tested on: Escherichia coli ATCC 25922; assay: as above; assay type: cell-based; conditions: average of three ± SD, - means non-active
[8] = tested on: Trichophyton mentagrophytes var. gypseum 1773; assay: Fungicidal activity, serial dilution technique; assay type: cell-based; conditions: Tm; average of three ± SD; - means non-active
Description: as §1
(§3) The antimicrobial activity of the QPSs was determined using the serial dilution technique in Mueller–Hinton Broth 2. The cultures used for testing included the Gram-positive bacteria Staphylococcus aureus ATCC 6538P FDA 209P, Enterococcus faecalis ATCC 2921 and Bacillus cereus ATCC 10702 NCTC 8035, the Gram-negative bacteria Escherichia coli ATCC 25922 and Pseudomonas aeruginosa ATCC 9027, and the fungi Trichophyton mentagrophytes var. gypseum 1773 and Candida albicans ATCC 10231; methicillin-resistant strains of S. aureus MRSA were obtained from hospital patients with chronic tonsillitis (MRSA-1) and sinusitis (MRSA-2) in the Republican Clinical Hospital (Kazan, Russia). Ciprofloxacin and ketoconazole were purchased from Sigma-Aldrich. The bacterial load was 3.0 × 10^5 cfu/mL. The results were recorded every 24 h for 5 days. The cultures were incubated at 37 °C. The experiment was repeated three times. […] The minimum inhibitory concentration (MIC) was defined as the minimum concentration of a compound that inhibits the growth of the corresponding test micro-organism. The growth of bacteria as well as the absence of growth due to the bacteriostatic action of a compound was recorded.

[9] = tested on: Candida albicans ATCC 10231; assay: Fungicidal activity, serial dilution technique; assay type: cell-based; conditions: average of three ± SD, - means non-active
Description: as §1, §3

[10] = tested on: Escherichia coli ATCC 25922; assay: Antimicrobial activity, serial dilution technique in Mueller–Hinton Broth 2; assay type: cell-based; conditions: average of three ± SD, - means non-active; remark: listed apart in the source
Description: as §1, §2

[11] = MRSA-2 (resistant to beta-lactams)
[12] = Enterococcus faecalis, ATCC2921, Ef
[13] = MRSA-1 (resistant to fluoroquinolones and beta-lactams)

Row | SMILES | MIC [2, 11] [µg/mL] | MIC [3, 12] [µg/mL] | MIC ([4]; Bacillus cereus, Bc) [µg/mL] | MIC [6] [µg/mL] | Minimum Inhibitory Concentration (MIC), MRSA-1 [1, 13] [µg/mL] | Minimum Bactericidal and Fungicidal Concentration (MBC, MFC), MRSA-1 [1] [µg/mL] | Minimum Bactericidal and Fungicidal Concentration (MBC, MFC), MRSA-2 [2] [µg/mL] | Minimum Bactericidal and Fungicidal Concentration (MBC, MFC), Tm [8] [µg/mL] | Minimum Inhibitory Concentration (MIC), Tm [8] [µg/mL] | Minimum Bactericidal and Fungicidal Concentration (MBC, MFC), Sa [6] [µg/mL] | also measured
1 | O=C(O)c1cn(C2CC2)c2cc(N3CCNCC3)c(F)cc2c1=O [Ciprofloxacin, reference compound] | 0.9 ± 0.07 (≈ 2.72 µM) | 3.9 ± 0.3 (≈ 11.8 µM) | 0.5 ± 0.04 (≈ 1.51 µM) | 0.5 ± 0.03 (≈ 1.51 µM) | – | – | – | – | – | – | MIC ([1]; Staphylococcus aureus, MRSA, MRSA-1 (resistant to fluoroquinolones and beta-lactams), read-out: Minimum Inhibitory Concentration (MIC), MRSA-1): 125 ± 11 µg/mL (≈ 377 µM); MIC [5]: 0.5 ± 0.03 µg/mL (≈ 1.51 µM)
2 | CCCCCCCCCCC[P+](C(C)(C)C)(C(C)(C)C)C(C)(C)C [Compound 11a] | 0.9 ± 0.08 | 7.8 ± 0.5 | 1.9 ± 0.1 | 0.9 ± 0.07 | 1.9 ± 0.1 | 1.9 ± 0.1 | 7.8 ± 0.6 | 31.3 ± 2.5 | 31.3 ± 2.5 | 1.9 ± 0.1 | MBC ([7]; Escherichia coli, ATCC25922, Ec, read-out: Minimum Bactericidal and Fungicidal Concentration (MBC, MFC), Ec): 31.3 ± 2.3 µg/mL; MBC ([9]; Candida albicans, ATCC10231, Ca, read-out: Minimum Bactericidal and Fungicidal Concentration (MBC, MFC), Ca): 62.5 ± 5.7 µg/mL; MIC ([9]; Candida albicans, ATCC10231, Ca, read-out: Minimum Inhibitory Concentration (MIC), Ca): 62.5 ± 5.5 µg/mL; MIC ([10]; Escherichia coli, ATCC25922, Ec, read-out: Minimum Inhibitory Concentration (MIC), Ec): 31.3 ± 2.6 µg/mL; MBC ([3]; Enterococcus faecalis, ATCC2921, Ef, read-out: Minimum Bactericidal and Fungicidal Concentration (MBC, MFC), Ef): 7.8 ± 0.6 µg/mL; MBC ([4]; Bacillus cereus, Bc, read-out: Minimum Bactericidal and Fungicidal Concentration (MBC, MFC), Bc): 125 ± 10 µg/mL
3 | CCCCCCCCCCC[P+](C(C)(C)C)(C(C)(C)C)C(C)(C)C [Compound 11b] | – | – | – | – | 0.3 ± 0.02 | 0.5 ± 0.03 | 0.9 ± 0.07 | 125 ± 9 | 125 ± 9 | 3.9 ± 0.2 | Minimum Bactericidal and Fungicidal Concentration (MBC, MFC), Ec ([7]; Ec): 62.5 ± 5.4 µg/mL; Minimum Inhibitory Concentration (MIC), MRSA-2 [2, 11]: 0.5 ± 0.04 µg/mL; Minimum Bactericidal and Fungicidal Concentration (MBC, MFC), Ca ([9]; Ca): 31.3 ± 2.1 µg/mL; Minimum Inhibitory Concentration (MIC), Ca ([9]; Ca): 31.3 ± 2.4 µg/mL; Minimum Inhibitory Concentration (MIC), Ec ([10]; Ec): 62.5 ± 5.3 µg/mL; Minimum Bactericidal and Fungicidal Concentration (MBC, MFC), Ef ([3]; Ef): 15.6 ± 1.2 µg/mL; Minimum Inhibitory Concentration (MIC), Ef ([3]; Ef): 7.8 ± 0.6 µg/mL; Minimum Bactericidal and Fungicidal Concentration (MBC, MFC), Bc [4]: 125 ± 10 µg/mL; Minimum Inhibitory Concentration (MIC), Bc [4]: 1.9 ± 0.1 µg/mL; Minimum Inhibitory Concentration (MIC), Sa [6]: 0.9 ± 0.07 µg/mL
